Entries after “also recorded” stand apart in the source; their conditions may differ.
Tests used:
[1] = system: Ras effectors ERK and AKT in DLD-1 cells; test: Western blot of downstream RAS signaling (P-ERK, P-AKT, P-MEK) in serum-starved DLD-1 cells; format: cell-based, human; settings: 100 μM; for activation of AKT and ERK / relative capacity to activate Ras effectors ERK and AKT among the compounds: DLD-1 serum-starved cells, 3 hours
Excerpt: DLD-1 (KRASWT/G13D) (clone V15, #HD PAR-086) colorectal adenocarcinoma cell line and DLD-1 knockout of mutant KRAS allele, DLD-1 KO (KRASWT/−) (clone DWT7, #HD105-002), were obtained from Horizon Discovery Ltd. (Cambridge, UK). hTERT-RPE (KRASWT/WT) immortalized retinal pigment epithelial human cell line was obtained from the […] (ATCC). DLD-1 KO cells stably expressing HA-KRAS G12V were previously generated in our laboratory (Cabot et al., 2021). All cells were grown in DMEM-HAM s F12 (1:1) supplemented with 10% foetal bovine serum (Biological Industries, Israel), penicillin, streptomycin, and nonessential amino acids. Cells were tested once per month for mycoplasma contamination.
Cells were seeded in a media containing 10% FBS for 24 hours and then they were serum starved (0.1% FBS) for the next 24 hours. Afterwards, they were incubated with the different compounds during the times specified in each figure. When indicated, also in order to activate downstream KRAS cell signalling, treatment for 10 minutes with EGF (50 ng/mL) (Sigma-Aldrich) was performed.
Proteins were resolved by SDS-PAGE, transferred onto PVDF membranes (Immobilon-P, Millipore) and Western blot was performed as previously described (Cabot et al, Oncogene 2021). The following primary antibodies were used: anti-c-RAF (BD Transduction 610151, 1:500); anti-phospho-c-RAF S338 (Cell Signaling 9427, 1:500); anti-AKT (Cell Signaling 9272, 1:1000); anti-phospho-AKT T308 (Cell Signaling 4056, 1:1000); anti-phospho-MEK1/2 S221 (Cell Signalling […]); anti-p44/42 MAPK (ERK1/2) (Cell Signaling 9102, 1:2000); anti-phospho-p44/42 MAPK(ERK1/2) T202/Y204 (Cell Signaling 4370, 1:2000); anti-HA (Sigma-Aldrich H6908, 1:1000); anti-cleaved-caspase-3 (Asp175) (Cell Signaling 9661, 1:1000); HRP-coupled secondary antibodies used: goat anti-rabbit (BioRad 170-6515, 1:3000) or goat anti-mouse (BioRad 170 6516, 1:3000).
For analysis of RAS signalling, cells were lysed in a buffer containing 67 mM Tris-HCl pH 6.8 and 2% SDS and then the samples were heated at 97° C. for 15 minutes. Protein concentration of the lysates was assessed using the Lowry method. An aliquot of […] of protein per sample was loaded onto the gels.
We first analyzed the effect of P14 on the activation of downstream RAS signaling pathways (RAF/MEK/ERK and PI3K/AKT) in DLD-1 cells (CRC cells carrying one oncogenic KRAS allele). To this end, DLD-1 serum-starved cells (0.1% FCS) were treated with P14 (100 μM) at different times, and activation of AKT and ERK was evaluated by Western blot. […] As a 3-hour treatment was associated with major effects, we chose this duration for the subsequent experiments with the other compounds. Next, DLD-1 serum-starved cells were treated with P14A-P14C at 100 μM for 3 hours and activation of AKT and ERK was assessed as above. […] The kinetics of RAS downstream signaling was analyzed in P14B-treated cells compared to 10% FBS serum.

[2] = system: Panc-1 cells; test: Cell Titre Glo viability assay, Panc-1; format: cell-based; settings: Panc-1 cells (KRAS mutant G12D), after five days of treatment
Procedure: In the next study, compounds were tested against cancer cells: pancreatic cancer cells (Panc-1), ovarian cancer cells (SW626) and uterine sarcoma cells (Mes-sa). The data generated using Cell Titre Glo® assays under standard conditions where the cells are grown in 384 well plates, then placed under continuous pressure of treatment for the relevant time period before being halted and assayed. The data collected is then plotted for analysis.
FIG. […]

SMILES	activation of AKT and ERK [1]	relative capacity to activate Ras effectors ERK and AKT among the compounds [1]	P-ERK and P-AKT levels, time course ([1]; DLD-1 serum-starved cells (0.1% FCS), 3 and 6 hours)	IC50 [2] [µM]	response among the molecules tested [2]
Cc1n[nH]c(O)c1C(c1ccc(F)cc1)c1c(C)n[nH]c1O [Example P14A]	increase AKT and/or ERK signalling	highest activation of both Ras effectors	–	–	–
Cc1n[nH]c(O)c1C(c1ccc2c(c1)OCO2)c1c(C)n[nH]c1O [Example P14C]	activated AKT and ERK kinases; also recorded: increase AKT and/or ERK signalling	–	–	–	–
Cc1n[nH]c(O)c1C(c1ccccc1OCc1ccc(Cl)cc1)c1c(C)n[nH]c1O [Example P14]	activated AKT and ERK kinases; also recorded: increase AKT and/or ERK signalling	most efficient	significantly increased P-ERK and P-AKT	–	–
COc1ccc(C(c2c(C)n[nH]c2O)c2c(C)n[nH]c2O)cc1OCCc1ccc(Cl)cc1 [P14(J)SD]	–	–	–	< 20	best response
